pIC50: −log10 of the molar value. Where only a bound is given, the exact number is not on record here.

Beta Secretase enzyme (BACE), sequence (P56817 46-501, species assumed): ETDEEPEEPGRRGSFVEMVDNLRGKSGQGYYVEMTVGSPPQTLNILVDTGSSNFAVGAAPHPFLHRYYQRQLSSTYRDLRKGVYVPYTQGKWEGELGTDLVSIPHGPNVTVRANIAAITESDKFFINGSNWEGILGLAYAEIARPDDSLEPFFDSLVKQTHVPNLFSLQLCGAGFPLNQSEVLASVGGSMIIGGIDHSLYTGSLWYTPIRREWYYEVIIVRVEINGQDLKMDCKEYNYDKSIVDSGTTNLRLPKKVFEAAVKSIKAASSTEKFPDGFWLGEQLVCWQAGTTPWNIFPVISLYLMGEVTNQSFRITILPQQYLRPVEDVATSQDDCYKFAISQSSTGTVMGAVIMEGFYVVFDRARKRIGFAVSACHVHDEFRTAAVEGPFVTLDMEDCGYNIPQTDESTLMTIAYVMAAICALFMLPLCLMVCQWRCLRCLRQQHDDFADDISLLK

One test has as its target Beta Secretase enzyme (BACE) (Homo sapiens, UniProt P56817). The experiment in a line: In vitro enzymatic BACE FRET (fluorescence resonance energy transfer) assay. The test is classed as biochemical. As to conditions: BACE 1 FRET assay (uM). As for the experimental part: In Vitro Enzymatic Bace Fret (Fluorescence Resonance Energy Transfer) Assay (Enzyme Assay Data in the Example Table I)
The assay buffer used in this screen is 0.05 M acetate, pH 4.2, 10% DMSO final, 100 uM genapol (which is a nonionic detergent, below its Critical Micelle Concentration). […] This assay is effectively started by the addition of FRET substrate (50 nM) and the combination is incubated for one hour. The FRET assay is terminated with by addition of Tris buffer, which raises the pH to neutrality, and the fluorescence is determined. The FRET substrate is a peptide with commercially available fluorophore and quencher, on opposite sides of the BACE cleavage site.
For the compound `NC1=N[C@@]2(CO1)c1cc(-c3cccnc3F)ccc1Oc1cnc(N3CCC(F)(F)C3)cc12` [Example 140, (S)-3-(3,3-difluoropyrrolidin-1-yl)-7-(2-fluoropyridin-3-yl)-5′H-spiro[chromeno[2,3-c]pyridine-5,4′-oxazol]-2′-amine], the IC50 was found to be 0.0006 µM.

The test is the same for the next values; noted with them: average IC50, enzyme assay; read-out: BACE 1 FRET assay.
On to `CC1(C#Cc2cc3c(cc2OC(F)(F)F)Oc2ccc(-c4cccnc4F)cc2[C@@]32COC(N)=N2)COC1` [Example 986, (4S)-7′-(2-fluoro-3-pyridinyl)-2′-((3-methyl-3-oxetanyl)ethynyl)-3′-(trifluoromethoxy)spiro[1,3-oxazole-4,9′-xanthen]-2-amine], for which the pIC50 is 6.71. `NC1=N[C@@]2(CO1)c1cc(-c3ccnc(F)c3)ccc1Oc1cnc(C3=CCOCC3)cc12` [Example 547, (5S)-3-(3,6-dihydro-2H-pyran-4-yl)-7-(2-fluoro-4-pyridinyl)spiro[chromeno[2,3-c]pyridine-5,4′-[1,3]oxazol]-2′-amine]: the pIC50 is 7.58. Same read-out and setting: the value for `NC1=N[C@@]2(CO1)c1cc(-c3cccnc3F)ccc1Oc1cnc(-c3cncs3)cc12` [Example 576, (5S)-7-(2-fluoro-3-pyridinyl)-3-(1,3-thiazol-5-yl)spiro[chromeno[2,3-c]pyridine-5,4′-[1,3]oxazol]-2′-amine] was 8.34; that for `NC1=N[C@@]2(CO1)c1cc(-c3ccnc(F)c3)ccc1Oc1cnc(-c3ccnc(F)c3)cc12` [Example 548, (5S)-3,7-bis(2-fluoro-4-pyridinyl)spiro[chromeno[2,3-c]pyridine-5,4′-[1,3]oxazol]-2′-amine] was 7.26; that for `Cc1ncc(-c2cc3c(cn2)Oc2ccc(-c4cccnc4F)cc2[C@@]32COC(N)=N2)cn1` [Example 546, (5S)-7-(2-fluoro-3-pyridinyl)-3-(2-methyl-5-pyrimidinyl)spiro[chromeno[2,3-c]pyridine-5,4′-[1,3]oxazol]-2′-amine] was 7.99.

The next test deals with Aβ40 in conditioned medium of cells stably expressing Amyloid Precursor Protein (APP). The experiment in a line: In vitro BACE cell-based assay (Aβ40 in conditioned medium, sandwich ELISA). The conditions noted are these: Homo sapiens, HEK293, average IC50, HEK cells; read-out: HEK cell assay. On the procedure:
In Vitro BACE Cell-Based Assay
The cell-based assay measures inhibition or reduction of Aβ40 in conditioned medium of test compound treated cells expressing amyloid precursor protein.
Cells stably expressing Amyloid Precursor Protein (APP) were plated at a density of 40K cells/well in 96 well plates (Costar). The cells were cultivated for 24 hours at 37° C. and 5% CO2 in DMEM supplemented with 10% FBS. The test compounds were then added to cells in 10-point dose response concentrations with the starting concentration being either 100 μM or 10 μM. The compounds were diluted from stock solutions in DMSO and the final DMSO concentration of the test compounds on cells was 0.1%. […] The IC50 of the compound was calculated from the percent of control or percent inhibition of Aβ 40 as a function of the concentration of the test compound.
The sandwich ELISA to detect Aβ 40 was performed in 96 well microtiter plates, which were pre-treated with goat anti-rabbit IgG (Pierce). The capture and detecting antibody pair that were used to detect Aβ 40 from cell supernatants were affinity purified pAb40 (Biosource) and biotinylated 6E10 (Signet Labs Inc.), respectively. The optimal concentration for the pAb40 antibody was 3 μg/ml in Superblock/TBS (Pierce) that was supplemented with 0.05% Tween 20 (Sigma).
Cellular supernatants were incubated with the capture antibody for 3 h at 4° C., followed by 3 wash steps in TBS-tween (0.05%). The detecting antibody incubation was for 2 h at 4° C., again followed by the wash steps as described previously. The final readout of the ELISA is Time-Resolved Fluorescence (counts per minute) using Delfia reagents Streptavidin-Europium and Enhancement solutions (Perkin Elmer) and the Victor 2 multilabel counter (Perkin Elmer).
On the technique in general: An ELISA detects its analyte on a solid surface through an enzyme-linked reagent.
Consider `NC1=N[C@@]2(CS1)c1cc(-c3cccnc3F)ccc1Oc1cnc(-c3ccnc(F)c3)cc12` [Example 589, (5S)-7-(2-fluoro-3-pyridinyl)-3-(2-fluoro-4-pyridinyl)spiro[chromeno[2,3-c]pyridine-5,4′-[1,3]thiazol]-2′-amine], for which the pIC50 is 7.41.

Consider `NC1=N[C@]2(CO1)c1cc(-c3cccnc3F)ccc1Oc1c2cc(C2=CCCOC2)nc1F` [Example 908, (5R)-3-(5,6-dihydro-2H-pyran-3-yl)-1-fluoro-7-(2-fluoro-3-pyridinyl)spiro[chromeno[2,3-c]pyridine-5,4′-[1,3]oxazol]-2′-amine], for which the pIC50 is 6.22. `NC1=N[C@@]2(CO1)c1cc(-c3cccc(F)n3)ccc1Oc1cnc(-c3ccnc(F)c3)cc12` [Example 632, (5S)-3-(2-fluoro-4-pyridinyl)-7-(6-fluoro-2-pyridinyl)spiro[chromeno[2,3-c]pyridine-5,4′-[1,3]oxazol]-2′-amine]: the pIC50 is 6.48. `NC1=N[C@@]2(CS1)c1cc(Br)ccc1Oc1cnc(Cl)cc12` [Example 588, (5S)-7-bromo-3-chlorospiro[chromeno[2,3-c]pyridine-5,4′-[1,3]thiazol]-2′-amine]: the pIC50 is 5.00.

Take `NC1=N[C@@]2(CO1)c1cc(-c3cccnc3F)ccc1Oc1ncc(C3=CCOCC3)cc12` [Example 460, (5S)-3-(3,6-dihydro-2H-pyran-4-yl)-7-(2-fluoro-3-pyridinyl)spiro[chromeno[2,3-b]pyridine-5,4′-[1,3]oxazol]-2′-amine]: the pIC50 was 8.19.

The test is the same for the next values; noted with them: Homo sapiens, HEK293, average IC50; read-out: HEK cell assay.
In the case of `CC1(C#Cc2cc3c(cc2OC(F)(F)F)Oc2ccc(-c4cccnc4F)cc2[C@@]32COC(N)=N2)COC1` [Example 986, (4S)-7′-(2-fluoro-3-pyridinyl)-2′-((3-methyl-3-oxetanyl)ethynyl)-3′-(trifluoromethoxy)spiro[1,3-oxazole-4,9′-xanthen]-2-amine], the pIC50 is 5.55. Turning to `NC1=N[C@@]2(CO1)c1cc(-c3cccnc3F)ccc1Oc1c(F)cc(-c3ccccn3)cc12` [Example 196, (4S)-4′-fluoro-7′-(2-fluoro-3-pyridinyl)-2′-(2-pyridinyl)spiro[1,3-oxazole-4,9′-xanthen]-2-amine], the pIC50 was 8.01.

Regarding `NC1=N[C@]2(CS1)c1cc(-c3cccnc3F)ccc1Oc1c2cc(-c2ccnc(F)c2)nc1F` [Example 997, (5R)-1-fluoro-7-(2-fluoro-3-pyridinyl)-3-(2-fluoro-4-pyridinyl)spiro[chromeno[2,3-c]pyridine-5,4′-[1,3]thiazol]-2′-amine], the pIC50 is 5.93. `NC1=N[C@@]2(CO1)c1cc(-c3cccnc3F)ccc1Oc1c(F)cc(N3CCOCC3)cc12` [Example 139, (S)-4′-fluoro-7′-(2-fluoropyridin-3-yl)-2′-morpholino-5H-spiro[oxazole-4,9′-xanthen]-2-amine]: the pIC50 was 8.28.

In the case of `NC1=N[C@@]2(CO1)c1cc(-c3cccnc3F)ccc1Oc1c(F)cc(N3CC[C@H](F)C3)cc12` [Example 280, (S)-4′-fluoro-7′-(2-fluoropyridin-3-yl)-2′-((S)-3-fluoropyrrolidin-1-yl)-5H-spiro[oxazole-4,9′-xanthen]-2-amine], the pIC50 is 8.16.

As to `NC1=N[C@@]2(CO1)c1cc(-c3cccnc3F)ccc1Oc1c2cc(C2=COCCC2)nc1F` [Example 807, (5S)-3-(3,4-dihydro-2H-pyran-5-yl)-1-fluoro-7-(2-fluoro-3-pyridinyl)spiro[chromeno[2,3-c]pyridine-5,4′-[1,3]oxazol]-2′-amine], the pIC50 is 5.51. Same read-out and setting: the value for `NC1=N[C@@]2(CO1)c1cc(-c3cncc(C#CCO)c3)ccc1Oc1cnc(C3=CCOCC3)cc12` [Example 826, 3-(5-((5S)-2′-amino-3-(3,6-dihydro-2H-pyran-4-yl)spiro[chromeno[2,3-c]pyridine-5,4′-[1,3]oxazol]-7-yl)-3-pyridinyl)-2-propyn-1-ol] was 8.70; that for `NC1=N[C@@]2(CO1)c1cc(-c3cccnc3F)ccc1Oc1c(F)cc(C3=CCCOC3)cc12` [Example 129, (S)-2′-(5,6-dihydro-2H-pyran-3-yl)-4′-fluoro-7′-(2-fluoropyridin-3-yl)-5H-spiro[oxazole-4,9′-xanthen]-2-amine] was 8.49. `NC1=N[C@@]2(CS1)c1cc(Br)ccc1Oc1cnc(Cl)cc12` [Example 994, (5S)-7-bromo-3-chlorospiro[chromeno[2,3-c]pyridine-5,4′-[1,3]thiazol]-2′-amine]: the pIC50 was ≤ 5.00. As to `NC1=N[C@@]2(CO1)c1cc(-c3cccnc3F)ccc1Oc1c(F)cc(N3CC[C@@H](F)C3)cc12` [Example 279, (4S)-4′-fluoro-7′-(2-fluoro-3-pyridinyl)-2′-((3R)-3-fluoro-1-pyrrolidinyl)spiro[1,3-oxazole-4,9′-xanthen]-2-amine], the pIC50 was 8.07.

The same test, now with this note: Homo sapiens, HEK293, read-out: HEK cell assay (uM).
Take `NC1=N[C@@]2(CO1)c1cc(-c3cccnc3F)ccc1Oc1cnc(N3CC[C@@H](F)C3)cc12` [Example 416, (5S)-7-(2-fluoro-3-pyridinyl)-3-((3R)-3-fluoro-1-pyrrolidinyl)spiro[chromeno[2,3-c]pyridine-5,4′-[1,3]oxazol]-2′-amine]: the IC50 came out at 0.0049 µM.

`NC1=N[C@@]2(CO1)c1cc(-c3cccnc3F)ccc1Oc1cnc(N3CC[C@H](F)C3)cc12` [Example 133, (S)-7-(2-fluoropyridin-3-yl)-3-((S)-3-fluoropyrrolidin-1-yl)-5′H-spiro[chromeno[2,3-c]pyridine-5,4′-oxazol]-2′-amine]: the IC50 was determined as 0.0096 µM.

Staying with this test, now noted: average IC50, HEK cells; read-out: HEK cell assay.
On to “2′-amino-9-fluoro-7-((3-methyl-3-oxetanyl)ethynyl)spiro[chromeno[2,3-c]pyridine-5,4′-[1,3]oxazol]-3-yl)benzonitrile [Example 694]”, for which the pIC50 is 5.96.

Still in this test, the particulars now being: average IC50; read-out: HEK cell assay.
Take “(4S)-7′-bromo-4′-fluoro-2′-methoxyspiro[1,3-thiazole-4,9′-xanthen]-2-amine [Example 218]”: the pIC50 was 6.89.

In the case of `CC(C)(C)C#Cc1cnc2c(c1)[C@]1(COC(N)=N1)c1cc(-c3cncnc3)c(F)cc1O2` [Example 340, (5S)-3-(3,3-dimethyl-1-butyn-1-yl)-8-fluoro-7-(5-pyrimidinyl)spiro[chromeno[2,3-b]pyridine-5,4′-[1,3]oxazol]-2′-amine], the pIC50 was 7.07. Turning to “(4R)-4′-fluoro-2′-methoxy-7′-(5-pyrimidinyl)spiro[1,3-thiazole-4,9′-xanthen]-2-amine [Example 217]”, the pIC50 was 5.80. Same read-out and setting: the value for “(4S)-4′-fluoro-2′-methoxy-7′-(5-pyrimidinyl)spiro[1,3-thiazole-4,9′-xanthen]-2-amine [Example 216]” was 7.35.

For the origin of these results see patent publication US8883782B2, “Spiro-tetracyclic ring compounds as beta-secretase modulators and methods of use” (Amgen Inc., priority 2010, dated 2014).
